Data on 1 compound can be found in publication PMC5339874, “Fluorene-9-bisphenol is anti-oestrogenic and may cause adverse pregnancy outcomes in mice” (Nature Communications, 2017).

For data set [1], the system named is female CD-1 mice. The data set can be described thus: Improved anti-uterotrophic assay, daily oral gavage for 10 days beginning on PND 24. In kind it is in vivo. The following applies: BHPF at 27.8 mg kg^−1 bw d^−1. How it is done:
The animals were fed ad libitum with a basic diet from the Laboratory Animal Center of the Academy of Military Medical Sciences (Beijing, China), and drinking water was provided ad libitum. […] The volume of vehicle or chemical solutions administered was adjusted daily based on body weight measured during the dosing period according to the volume-body weight ratio of 5 ml kg^−1 bw.

Data set [2] has as its system sprr2a and sprr2b. The data set can be described thus: Q-RT-PCR of sprr2a and sprr2b in uteri after 10-day dosing. The data set is classed as in vivo, mice. As to conditions: 10 days; P<0.05. How it is done: The uteri, ovaries and livers were collected for total RNA isolation. Total RNA was isolated using Trizol reagent (Invitrogen) and further purified by NucleoSpin RNA Clean-up (Macherey-Nagel, Germany). Fluorescence labelling of the RNA samples was performed with a Jingxin cRNA linear amplification and labelling kit (CapitalBio) according to the manufacturer's instructions. The total RNA from each pool of tissue samples (a mixture from three animals) was used for microarray analysis. Cy3 dCTP was used to label the samples. The labelled products were added to SurePrint G3 mouse gene expression 8 × 60 K microarrays (Agilent) and incubated overnight at 42 °C. Following hybridization, the gene arrays were washed and scanned using an Agilent G2565CA Microarray Scanner. Glyceraldehyde 3-phosphate dehydrogenase (GAPDH) was used as an endogenous control to monitor the quality of the target preparation. The data were processed with feature extraction software (GeneSpring GX v.11; Agilent). The raw signals were log-transformed and normalized with the percentile shift normalization method. All arrays met the minimum Agilent QA/QC standards. To verify the data from the gene array, 14 genes were chosen as candidates for Q-RT-PCR. Primers are listed in Supplementary Table 4. GAPDH was used as an endogenous control. […] The relative expression was quantified using the 2^(−ΔΔCt) method. […]

For data set [3], the system named is female CD-1 mice. The data set can be described thus: Exposure experiment through drinking water. The data set is classed as in vivo. The following applies: 10-day exposure via drinking water; no statistically significant difference (P>0.05). How it is done:
Mice with a maximal difference in body weight of 1 g were selected for the experiments and randomly assigned to either the treatment or control groups. […] The animals were fed ad libitum an oestrogen-free diet from Trophic Animal Feed High-tech Co., Ltd. (Nantong, China), and drinking water was provided ad libitum in glass bottles. Before the experiments, the mice were randomly assigned to five groups (n=8). Ultra-pure water was used as a control. FULV was dissolved in ultra-pure water to a concentration of 100 ng l^−1 and used as a positive control. […] Two plastic drinking bottles labelled ‘BPA-free', of different brands, were purchased and denoted Bottle A and Bottle B. The plastic bottles were filled with boiling ultra-pure water from a stainless steel electric water heater and allowed to cool down to room temperature before the animal experiment. The BHPF levels in the cooled boiled waters from Bottle A, Bottle B and the stainless steel electric water heater were determined by GC–MS. No BHPF was detected in the cooled boiled water from the stainless steel electric water heater. The cooled boiled waters from Bottle A and Bottle B were transferred to glass bottles during the experiment. The exposure experiment was performed for 10 days beginning on PND 24. After the period of exposure, the mice were weighed and killed in turns for each group, whereby in each turn only one mouse in a group was killed. Blood was collected by cardiac puncture soon after each animal was killed, and the uteri were removed, blotted and weighed by one experimenter to reduce the risk of bias in the data collection and immediately frozen in liquid nitrogen for gene expression analysis. The relative uterine weight was calculated to evaluate the anti-uterotrophic activity. […] The serum BHPF levels were analysed by GC–MS using the same method as that for human serum. The gene expressions of sprr2a and sprr2b in the uteri were determined by Q-RT-PCR.

Data set [4] is described as follows: Analysis of BHPF in human serum (GC–MS). The data set is classed as in vivo. The text has this:
In China, college students usually undergo a physical examination before graduation. The volunteers in this study were senior students who were undergoing a physical examination in Beijing. Fifty male and 50 female healthy volunteers (mean age, 23.5±1.2 years) who habitually used plastic water bottles were randomly recruited to participate in this study in June 2015, after appropriate ethical approval was received from the Human Ethics Committee of the Peking University Peoples' Hospital. Each participant provided informed consent and volunteered to give one 10-ml random sample of blood. Fasting blood was collected at Peking University Hospital Medical Center with vacutainer blood collection device (Chengwu Yongkang Medical Products Ltd., China) between 8 and 9 h. […] The blood was collected directly into plain 10-ml glass vacutainer tubes and spun down 30 min later for serum preparation. The serum samples were stored in glass tubes at −80 °C until analysis. The samples were fortified with 5 ng of surrogate standard BHPF-d7, and the pH was adjusted to 6.5 with ammonium acetate. β-Glucuronidase/arylsulfatase (20 μl; Sigma-Aldrich, St Louis, MO) was added to the samples, and they were incubated at 37 °C for 20 h to allow deglucuronidation. […]

`Oc1ccc(C2(c3ccc(O)cc3)c3ccccc3-c3ccccc32)cc1` [BHPF, 9,9-bis(4-hydroxyphenyl)-fluorene]: in data set [1], the “anti-uterotrophic activity compared with FULV” value was “close to that of FULV at 2 mg kg^−1 bw d^−1”. In data set [2], the “doses significantly down-regulating sprr2a and sprr2b in uteri” value is recorded as ≥ 9.26 mg kg^−1 bw d^−1. For the same compound, the “expression of sprr2a in the uteri (Q-RT-PCR)” value in data set [3] is listed as “decreased”. For the same compound, the “maximal serum BHPF level” value in data set [4] (human volunteers) came out at 0.7 ng/mL. In addition, the “mean serum BHPF level” value in data set [4] (volunteers with detectable BHPF) was found to be 0.34 ± 0.21 ng/mL.
